These results are taken from patent US20220363665A1, “QUINOLINE COMPOUNDS FOR THE TREATMENT OF AUTOIMMUNE DISEASE” (Hoffmann-La Roche Inc., priority 2019, published 2022).

As a reminder, the inhibition is the relative decrease from the control value, in per cent.

Holding throughout (type): in vitro ADME
A short description of data set [1]: Human microsome stability assay. The settings on record: 1 μM test compound, 0.5 mg/mL protein. The method, then:
The human microsomal stability assay is used for early assessment of metabolic stability of a test compound in human liver microsomes.
Human liver microsomes (Cat. NO.: 452117, Corning, USA; Cat. NO.: H2610, Xenotech, USA) were preincubated with test compound for 10 minutes at 37° C. in 100 mM potassium phosphate buffer, pH 7.4. The reactions were initiated by adding NADPH regenerating system. The final incubation mixtures contained 1 μM test compound, 0.5 mg/mL liver microsomal protein, 1 mM MgCl2, 1 mM NADP, 1 unit/mL isocitric dehydrogenase and 6 mM isocitric acid in 100 mM potassium phosphate buffer, pH 7.4. After incubation times of 0, 3, 6, 9, 15 and 30 minutes at 37° C., 300 μL of cold ACN (including internal standard) was added to 100 μL incubation mixture to terminate the reaction. Following precipitation and centrifugation, the amount of compound remaining in the samples were determined by LC-MS/MS. Controls of no NADPH regenerating system at zero and 30 minutes were also prepared and analyzed. The results were categorized as: low (<7.0 mL/min/kg), medium (7.0˜16.2 mL/min/kg) and high (16.2-23.2 mL/min/kg).

The target in another data set is T1, CYP2C9 (Homo sapiens, UniProt P11712).
T1 construct: tissue BD-Gentest 452117; host or cells: human liver microsomes
T1 sequence (P11712 whole entry): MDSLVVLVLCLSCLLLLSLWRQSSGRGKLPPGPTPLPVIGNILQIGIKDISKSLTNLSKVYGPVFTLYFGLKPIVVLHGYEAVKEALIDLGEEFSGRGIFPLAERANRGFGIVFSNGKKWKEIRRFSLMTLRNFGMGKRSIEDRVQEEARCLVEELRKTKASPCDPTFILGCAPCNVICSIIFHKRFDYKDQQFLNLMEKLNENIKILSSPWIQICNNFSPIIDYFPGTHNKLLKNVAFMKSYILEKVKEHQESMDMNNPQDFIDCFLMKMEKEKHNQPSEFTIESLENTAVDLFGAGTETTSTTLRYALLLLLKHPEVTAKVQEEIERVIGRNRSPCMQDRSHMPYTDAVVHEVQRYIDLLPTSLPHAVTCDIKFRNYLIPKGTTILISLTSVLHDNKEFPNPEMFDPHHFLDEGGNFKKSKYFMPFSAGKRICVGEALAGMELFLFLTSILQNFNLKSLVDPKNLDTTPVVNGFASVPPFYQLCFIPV
The data set is described as follows: CYP inhibition assay in human liver microsome, CYP2C9. The settings on record: HLM, diclofenac substrate; for inhibition at 5 min, 10 µM: human, liver microsomes, probe diclofenac, read-out: CYP inhibition % @10 uM (2C9). Here is the method:
(§1) This is a high throughput screening assay used for assessment of reversible inhibition of CYP2C9, CYP2D6, and CYP3A4 activity of test compounds in human liver microsome (HLM) in early discovery stage.
(§2) 10 mM DMSO stock solutions of test compounds were diluted in DMSO to generate 2 mM intermediate stock solution. 250 nL of intermediate stock solution were transferred in duplicate into 3 separate 384 well microtitre plates (assay-ready plates). A mixture of HLM and each substrate was made up. 45 μL of HLM substrate mix was then transferred to each well of an assay ready plate and mixed. The negative (solvent) and positive controls (standard inhibitor for each CYP) were included in each assay ready plate. The assay ready plate was warmed to 37° C. in an incubator over 10 minutes. 5 μL pre-warmed NADPH regenerating system was added to each incubation well to start the reaction. Final incubation volume was 50 μL. The assay plate then was placed back in the 37° C. incubator. After 5 minutes incubation (10 minutes for CYP2D6), incubates were quenched by addition of 50 μL quench reagent containing internal standards (400 ng/mL 13C6-4′-OH-Diclofenac, 20 ng/mL D3-Dextrorphan and 20 ng/mL D4-1′OH-Midazolam in acetonitrile). The supernatants were collected for RapidFire/MS/MS analysis.
(§3) RapidFire online solid phase extraction/sample injection system (Agilent) coupled with API4000 triple quadrupole mass spectrometer (AB Sciex) were used for sample analysis. The mobile phase composed of acetonitrile and water supplemented with 0.1% formic acid. A C4 solid phase extraction cartridge is used for sample separation. MS detection is achieved in positive ion MRM mode.
(§4) Peak areas for substrate, metabolite and internal standard are determined using the
(§5) RapidFire integrator software (version 3.6.12009.12296). Peak area ratios (PAR) of metabolite and internal standard (stable-labelled metabolite) are then calculated. The measurement window for each experiment is then defined:
(§6) PAR (0% activity)=average PAR for all incubations containing concentrated inhibitor;
(§7) Par (100% activity)=average PAR for all incubations containing no inhibitor (DMSO controls);
(§8) % Activity (test inhibitor) =[PAR(test inhibitor)-PAR(0% activity)][PAR(100% activity)-PAR(0% activity)];
(§9) % Inhibition (test inhibitor)=100-% Activity (test inhibitor).
(§10) Percentage inhibition data are then reported, in duplicate, for the 3 CYP enzymes.
On the technique in general: Liver microsomes are vesicles of endoplasmic reticulum, rich in cytochrome P450 enzymes.

In another data set the target is T2, CYP2D6 (Homo sapiens, UniProt P10635).
T2 construct: tissue BD-Gentest 452117; host or cells: human liver microsomes
T2 sequence (P10635 whole entry): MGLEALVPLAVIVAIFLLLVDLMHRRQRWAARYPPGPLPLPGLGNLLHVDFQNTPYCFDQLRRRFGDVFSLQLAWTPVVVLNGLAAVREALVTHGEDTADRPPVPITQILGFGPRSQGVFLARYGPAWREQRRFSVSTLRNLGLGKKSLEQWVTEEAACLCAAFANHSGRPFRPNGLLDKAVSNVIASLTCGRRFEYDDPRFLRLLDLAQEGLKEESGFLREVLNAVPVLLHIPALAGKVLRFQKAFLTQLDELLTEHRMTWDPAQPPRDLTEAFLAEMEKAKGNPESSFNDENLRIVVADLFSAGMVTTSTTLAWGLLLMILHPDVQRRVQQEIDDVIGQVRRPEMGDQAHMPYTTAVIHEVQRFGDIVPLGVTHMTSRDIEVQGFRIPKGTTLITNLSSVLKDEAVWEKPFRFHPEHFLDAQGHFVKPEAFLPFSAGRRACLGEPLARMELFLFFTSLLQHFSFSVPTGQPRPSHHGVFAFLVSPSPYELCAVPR
The data set is described as follows: CYP inhibition assay in human liver microsome, CYP2D6. The settings on record: HLM, dextromethorphan substrate; for inhibition at 10 min, 10 µM: human, liver microsomes, probe dextromethorphan, read-out: CYP inhibition % @10 uM (2D6). Here is the method:
as §1, §2, §3, §4, §5, §6, §7, §8, §9, §10

The target in a further data set is T3, CYP3A4 (Homo sapiens, UniProt P08684).
T3 construct: tissue BD-Gentest 452117; host or cells: human liver microsomes
T3 sequence (P08684 whole entry): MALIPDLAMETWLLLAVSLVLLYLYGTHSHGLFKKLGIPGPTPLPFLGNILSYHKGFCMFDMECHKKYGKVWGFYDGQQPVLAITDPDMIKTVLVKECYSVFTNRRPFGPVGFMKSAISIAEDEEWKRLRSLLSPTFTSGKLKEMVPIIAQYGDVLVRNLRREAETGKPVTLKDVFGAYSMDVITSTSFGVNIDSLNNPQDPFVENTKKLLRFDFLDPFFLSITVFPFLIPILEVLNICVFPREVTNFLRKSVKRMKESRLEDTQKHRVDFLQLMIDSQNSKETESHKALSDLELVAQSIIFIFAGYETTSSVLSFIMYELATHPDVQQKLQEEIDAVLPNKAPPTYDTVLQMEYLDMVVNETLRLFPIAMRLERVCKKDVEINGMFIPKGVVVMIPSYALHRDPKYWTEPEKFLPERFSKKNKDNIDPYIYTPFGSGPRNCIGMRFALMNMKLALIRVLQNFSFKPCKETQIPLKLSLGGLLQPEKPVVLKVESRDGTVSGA
The data set is described as follows: CYP inhibition assay in human liver microsome, CYP3A4. The settings on record: human, liver microsomes, probe midazolam, HLM, midazolam substrate, read-out: CYP inhibition % @10 uM (3A4). The method, then: as §1, §2, §3, §4, §5, §6, §7, §8, §9, §10

Turning to `C[C@@H]1CN(c2ccc(C(F)(F)F)c3ncccc23)C[C@H](C(=O)NC2CNC[C@@H]2F)O1` (stereo partly drawn) [Example 2, cis-(2R,6R)-N-(4-fluoropyrrolidin-3-yl)-6-methyl-4-[8-(trifluoromethyl)-5-quinolyl]morpholine-2-carboxamide], in data set [1], the “clearance in human liver microsomes” value stood at 6.15 mL/min/kg.

For `C[C@@H]1CN(c2ccc(C(F)(F)F)c3ncccc23)C[C@H](C(=O)NC[C@@H]2C[C@@H](F)CN2)O1` [Example 27, (2R,6R)-N-[[(2S,4R)-4-fluoropyrrolidin-2-yl]methyl]-6-methyl-4-[8-(trifluoromethyl)-5-quinolyl]morpholine-2-carboxamide], the “clearance in human liver microsomes” value in data set [1] is 6.15 mL/min/kg. For the same compound, the inhibition at 5 min, 10 µM at CYP2C9 is -8%; at CYP3A4 it was -2%. For the same compound, the inhibition at 10 min, 10 µM at CYP2D6 turned out to be 6%.

As for `C[C@@H]1CN(c2ccc(Cl)c3ncccc23)C[C@H](C(=O)NCC2CN(C)CCO2)O1` (stereo partly drawn) [Example 26, (2R,6R)-4-(8-chloro-5-quinolyl)-6-methyl-N-[(4-methylmorpholin-2-yl)methyl]morpholine-2-carboxamide], the “clearance in human liver microsomes” value in data set [1] turned out to be 6.15 mL/min/kg. Moreover, the inhibition at 5 min, 10 µM is -13% on CYP2C9 and -5% at CYP3A4. At CYP2D6, the inhibition at 10 min, 10 µM is 3%.

As to `Cc1ccc(N2C[C@@H](C)O[C@@H](C(=O)NCC3CN(C)CCO3)C2)c2cccnc12` (stereo partly drawn) [Example 17, (2R,6R)-6-methyl-N-[(4-methylmorpholin-2-yl)methyl]-4-(8-methyl-5-quinolyl)morpholine-2-carboxamide], in data set [1], the “clearance in human liver microsomes” value is 6.15 mL/min/kg. Also, the inhibition at 5 min, 10 µM is -4% at CYP2C9 and -5% on CYP3A4. The inhibition at 10 min, 10 µM on CYP2D6 amounted to 3%.

For the compound `C[C@@H]1CN(c2ccc(C(F)(F)F)c3ncccc23)C[C@H](C(=O)NC2CC3CCCC(C2)N3)O1` (single isomer, unassigned) [Example 34B], in data set [1], the “clearance in human liver microsomes” value turned out to be 6.17 mL/min/kg. Also, the “CYP inhibition % @10 uM (2C9)” value on CYP2C9 is recorded as −8%. For the same compound, the “CYP inhibition % @10 uM (2D6)” value at CYP2D6 is reported as −10%. The inhibition at 5 min, 10 µM at CYP3A4 is -28%.

Take `C[C@@H]1CN(c2ccc(Cl)c3ncccc23)C[C@H](C(=O)NC2CCCNCC2)O1` (stereo partly drawn) [Example 25, (2R,6R)-N-(azepan-4-yl)-4-(8-chloro-5-quinolyl)-6-methyl-morpholine-2-carboxamide]: the “clearance in human liver microsomes” value in data set [1] came to 7.16 mL/min/kg. Moreover, the inhibition at 5 min, 10 µM on CYP2C9 worked out at 26%; at CYP3A4, 2%. In addition, at CYP2D6, the inhibition at 10 min, 10 µM is 0%.

Take `C[C@@H]1CN(c2ccc(C(F)(F)F)c3ncccc23)C[C@H](C(=O)NC2CC3CNCC32)O1` (single isomer, unassigned) [Example 49C]: in data set [1], the “clearance in human liver microsomes” value worked out at 6.15 mL/min/kg. Moreover, the “CYP inhibition % @10 uM (2C9)” value at CYP2C9 was 11%. Further, the “CYP inhibition % @10 uM (2D6)” value at CYP2D6 was determined as 8%.

Regarding `C[C@@H]1CN(c2ccc(C(F)(F)F)c3ncccc23)C[C@H](C(=O)N[C@H]2CNC[C@H]2F)O1` (single isomer, unassigned) [Example 2B], the “clearance in human liver microsomes” value in data set [1] is 6.15 mL/min/kg.

With `C[C@@H]1CN(c2ccc(C(F)(F)F)c3ncccc23)C[C@H](C(=O)N2CCC(N)CC2)O1` [Example 12, (4-amino-1-piperidyl)-[(2R,6R)-6-methyl-4-[8-(trifluoromethyl)-5-quinolyl]morpholin-2-yl]methanone], the “clearance in human liver microsomes” value in data set [1] was 6.15 mL/min/kg. The inhibition at 5 min, 10 µM on CYP2C9 stood at 12%. For the same compound, at CYP2D6, the inhibition at 10 min, 10 µM is 7%.

As to `C[C@@H]1CN(c2ccc(C(F)(F)F)c3ncccc23)C[C@H](C(=O)NC2CC3CCCC(C2)N3)O1` (single isomer, unassigned) [Example 34A], the “clearance in human liver microsomes” value in data set [1] came out at 6.24 mL/min/kg. Moreover, on CYP2C9, the “CYP inhibition % @10 uM (2C9)” value is −6%. Further, the “CYP inhibition % @10 uM (2D6)” value at CYP2D6 is listed as 3%.

`C[C@@H]1CN(c2ccc(C(F)(F)F)c3ncccc23)C[C@H](C(=O)NC2CCN(C)CC2)O1` [Example 5, (2R,6R)-6-methyl-N-(1-methyl-4-piperidyl)-4-[8-(trifluoromethyl)-5-quinolyl]morpholine-2-carboxamide]: the “clearance in human liver microsomes” value in data set [1] was found to be 6.15 mL/min/kg. Further, the inhibition at 5 min, 10 µM is -1% on CYP2C9 and -13% at CYP3A4. On CYP2D6, the inhibition at 10 min, 10 µM was 16%.

Consider `C[C@@H]1CN(c2ccc(C(F)(F)F)c3ncccc23)C[C@H](C(=O)N2CCC(N)C2)O1` (stereo partly drawn) [Example 10, (3-aminopyrrolidin-1-yl)-[(2R,6R)-6-methyl-4-[8-(trifluoromethyl)-5-quinolyl]morpholin-2-yl]methanone], for which the “clearance in human liver microsomes” value in data set [1] worked out at 6.15 mL/min/kg. The inhibition at 5 min, 10 µM at CYP2C9 was determined as 11%; on CYP3A4, 10%. Moreover, the inhibition at 10 min, 10 µM on CYP2D6 is 26%.

`C[C@@H]1CN(c2ccc(C(F)(F)F)c3ncccc23)C[C@H](C(=O)N2CC(N)C2)O1` [Example 7, (3-aminoazetidin-1-yl)-[(2R,6R)-6-methyl-4-[8-(trifluoromethyl)-5-quinolyl]morpholin-2-yl]methanone]: the “clearance in human liver microsomes” value in data set [1] amounted to 6.15 mL/min/kg.

For `C[C@@H]1CN(c2ccc(C(F)(F)F)c3ncccc23)C[C@H](C(=O)NC2CCCNCC2)O1` (stereo partly drawn) [Example 8, (2R,6R)-N-(azepan-4-yl)-6-methyl-4-[8-(trifluoromethyl)-5-quinolyl]morpholine-2-carboxamide], in data set [1], the “clearance in human liver microsomes” value turned out to be 6.15 mL/min/kg. Also, the inhibition at 5 min, 10 µM on CYP2C9 is -8%; at CYP3A4 it was -34%. Also, the inhibition at 10 min, 10 µM at CYP2D6 amounted to 10%.

Take `C[C@@H]1CN(c2ccc(Cl)c3ncccc23)C[C@H](C(=O)NC2CCN(C)CC2)O1` [Example 24, (2R,6R)-4-(8-chloro-5-quinolyI)-6-methyl-N-(1-methyl-4-piperidyl)morpholine-2-carboxamide]: the “clearance in human liver microsomes” value in data set [1] came to 6.15 mL/min/kg. The inhibition at 5 min, 10 µM on CYP2C9 was -20%. Besides, on CYP2D6, the inhibition at 10 min, 10 µM was -6%.

In the case of `C[C@@H]1CN(c2ccc(Cl)c3ncccc23)C[C@H](C(=O)N[C@H]2CNC[C@H]2F)O1` [Example 22, (2R,6R)-4-(8-chloro-5-quinolyl)-N-[(3S,4R)-4-fluoropyrrolidin-3-yl]-6-methyl-morpholine-2-carboxamide], the “clearance in human liver microsomes” value in data set [1] worked out at 6.15 mL/min/kg.

`C[C@H]1C[C@@H](N)CN(c2ccc(C(F)(F)F)c3ncccc23)C1` [Example 1, (3R,5S)-5-methyl-1-[8-(trifluoromethyl)-5-quinolyl]piperidin-3-amine]: the “clearance in human liver microsomes” value in data set [1] came out at 6.15 mL/min/kg.

`C[C@H]1C[C@@H](N)CN(c2ccc(Cl)c3ncccc23)C1` [Example 23, (3R,5S)-1-(8-chloro-5-quinolyl)-5-methyl-piperidin-3-amine]: in data set [1], the “clearance in human liver microsomes” value came out at 6.15 mL/min/kg. The inhibition at 5 min, 10 µM at CYP2C9 was -16%. For the same compound, the inhibition at 10 min, 10 µM on CYP2D6 was found to be 35%.
